# In patent US20060100431A1, “Biologically active compounds” (Amura Therapeutics Limited, priority 2002, published 2006):
# Target: T1, human cathepsin K (Homo sapiens, UniProt P43235)
# T1 construct: Dr. Boris Turk (Josef Stefan Institute, Ljubljana, Slovenia)
# T1 sequence (P43235 115-329): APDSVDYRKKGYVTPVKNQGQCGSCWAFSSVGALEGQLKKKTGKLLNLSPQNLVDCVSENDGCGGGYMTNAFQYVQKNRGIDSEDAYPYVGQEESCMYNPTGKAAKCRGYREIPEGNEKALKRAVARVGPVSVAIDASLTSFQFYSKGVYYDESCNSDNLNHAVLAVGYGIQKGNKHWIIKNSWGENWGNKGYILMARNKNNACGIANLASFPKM
# Test: Cathepsin K peptidase activity assay (Ki)
# Type: biochemical
# Conditions: Table 5
# Experimental: Unless otherwise stated, all general chemicals and biochemicals were purchased from either the Sigma Chemical Company, Poole, Dorset, U.K or from Fisher Scientific UK, Loughborough, Leicestershire, U.K. Absorbance assays were carried out in flat-bottomed 96-well plates (Spectra; Greiner Bio-One Ltd., Stonehouse, Gloucestershire, U.K.) using a SpectraMax PLUS384 plate reader (Molecular Devices, Crawley, U.K.). […] Fluorescence assays were monitored using a SpectraMax Gemini fluorescence plate reader (Molecular Devices). For substrates employing either a 7-amino-4-methylcoumarin (AMC) or a 7-amino-4-trifluoromethylcoumarin (AFC) fluorophore, assays were monitored at an excitation wavelength of 365 nm and an emission wavelength of 450 nm and the fluorescence plate reader calibrated with AMC. For substrates employing a 3-amino-benzoyl (Abz) fluorophore, assays were monitored at an excitation wavelength of 310 nm and an emission wavelength of 445 nm; the fluorescence plate reader calibrated with 3-amino-benzamide (Fluka). Unless otherwise indicated, all the peptidase substrates were purchased from Bachem UK, St Helens, Merseyside, UK. […] Hydroxyethylpiperazine ethanesulfonate (HEPES), tris-hydroxylmethyl aminomethane (tris) base, bis-tris-propane and all the biological detergents (e.g. CHAPS, zwittergents, etc.) were purchased from CN Biosciences UK, Beeston, Nottinghamshire, U.K. Glycerol was purchased from Amersham Pharmacia Biotech, Little Chalfont, Buckinghamshire, U.K. Stock solutions of substrate or inhibitor were made up to 10 mM in 100% dimethylsulfoxide (DMSO) (Rathburns, Glasgow, U.K.) and diluted as appropriately required. In all cases the DMSO concentration in the assays was maintained at less than 1% (vol./vol.).
# Enzyme was added as required to initiate the reaction and the activity, as judged by the change in fluorescence upon conversion of substrate to product, was monitored over time. All assays were carried out at 25±1° C.
# Bovine cathepsin S, human cathepsin L, human cathepsin H and human cathepsin B were obtained from CN Biosciences. Recombinant human cathepsin S, human cathepsin K and human cathepsin X were obtained from Dr. Boris Turk (Josef Stefan Institute, Ljubljana, Slovenia). Unless otherwise stated, all peptidase activity assays were carried out in 10 mM bis-tris-propane (BTP), pH 6.5 containing 1 mM EDTA, 5 mM 2-mercaptoethanol and 1 mM CaCl2.
# The apparent inhibition constant (Ki) for each compound was determined on the basis that inhibition was reversible and occurred by a pure-competitive mechanism. […] [formula]
# [formula] Ki^app=Ki(1+[So]/KM^app) (4)
# Curves were fitted by non-linear regression analysis (Prism) using a fixed value for the enzyme concentration.
row,Compound,Ki
1,"CC(C)C[C@H](NC(=O)c1ccc(-c2cccs2)cc1)C(=O)N1CC[C@@H]2[C@H]1C(=O)CN2C(=O)c1ccccc1 [Example 2, (3aR,6aS)-N-[(1S)-1-(4-Benzoyl-6-oxo-hexahydro-pyrrolo[3,2-b]pyrrole-1-carbonyl)-3-methyl-butyl]-4-thiophen-2-yl-benzamide]",< 0.01 µM
2,"O=C(N[C@@H](CC1CCCCC1)C(=O)N1CC[C@@H]2[C@H]1C(=O)CN2C(=O)c1ccccc1)c1ccsc1 [Example 250, (3aR,6aS)-Thiophene-3-carboxylic acid [(1S)-2-(4-benzoyl-6-oxo-hexahydro-pyrrolo[3,2-b]pyrrole-1-yl)-1-cyclohexylmethyl-2-oxo-ethyl]-amide]",> 5 µM
3,"O=C(N[C@@H](Cc1ccc(O)cc1)C(=O)N1CC[C@@H]2[C@H]1C(=O)CN2C(=O)c1ccccc1)c1cccc2ccccc12 [Example 296, (3aR,6aS)-Naphthalene-1-carboxylic acid [(1S)-2-(4-benzoyl-6-oxo-hexahydro-pyrrolo[3,2-b]pyrrole-1-yl)-1-(4-hydroxybenzyl)-2-oxo-ethyl]-amide]",> 50 µM
4,"CC(C)(C)c1ccc(C(=O)N[C@@H](Cc2ccc(O)cc2)C(=O)N2CC[C@@H]3[C@H]2C(=O)CN3C(=O)c2ccccc2)cc1 [Example 346, (3aR,6aS)-N-[(1S)-2-(4-Benzoyl-6-oxo-hexahydro-pyrrolo[3,2-b]pyrrol-1-yl)-1-(4-hydroxybenzyl)-2-oxo-ethyl]-4-tert-butyl-benzamide]",> 8 µM
